Columns and labels:
Assay type in all cases: functional
MDA-MB-231 [1] = assay: Induction of apoptosis in human MDA-MB-231 cells assessed as viable cells at 5 uM after 24 hrs by AnnexinV-FITC/PI staining based flow cytometry analysis (reference value: 96.45%); settings: read-out: Activity
MDA-MB-231 [2] = assay: Induction of apoptosis in human MDA-MB-231 cells assessed as early apoptotic cells at 10 uM pretreated with autophagy inhibitor, 3-methyladenine for 1 hr followed by incubation with compound and measured after 24 hrs by Annexin V-FITC/propidium iodide staining based flow cytometry (reference value: 3.81%); design: scale not given: the % may be the effect or the level left
MDA-MB-468 = assay: Induction of apoptosis in human MDA-MB-468 cells assessed as viable cells at 5 uM after 24 hrs by AnnexinV-FITC/PI staining based flow cytometry analysis (reference value: 95.1%); settings: read-out: Activity
MDA-MB-231 [3] = assay: Induction of apoptosis in human MDA-MB-231 cells assessed as late apoptotic cells at 10 uM after 24 hrs by AnnexinV-FITC/PI staining based flow cytometry analysis (reference value: 0.84 to 1.59%)

## C/C(=N\NC(=O)c1cccc(Br)c1)c1ccc(C(=O)Nc2nc3ccccc3[nH]2)cc1
MDA-MB-231 [1]
  viability at 5 µM: 87.1%
MDA-MB-231 [2]
  Activity: 6.1%
MDA-MB-468
  viability at 5 µM: 86.2%
MDA-MB-231 [3]
  Activity: 5.71%
